Data on four molecules can be found in patent publication US6235751A, “Quinolizine carboxylic acid derivatives” (Korean Research Institute of Chemical Technology, priority 1997, dated 2001).

Values after ≈ are worked out from the molar mass of the structure shown. Like-named read-outs stand apart in the source and are kept apart here.

In test [1] the test system is Escherichia coli DC 2. Put plainly: Antibacterial activity in vitro (MIC, two-fold agar dilution). The conditions noted are these: DC2, Muller Hinton agar, 10^7 CFU/ml, 37° C., 18 hours, read-out: Minimal Inhibitory Concentration (MIC). Type of test: cell-based. From the text:
(§1) Test 1. Antibacterial activity in vitro
A general note: Agar dilution tests growth on a series of plates holding different concentrations.

Test [2] concerns Escherichia coli DC 0. The test is described as above. It counts as cell-based. The following applies: read-out: Minimal Inhibitory Concentration (MIC).
Description: as §1

The test system of test [3] is Pseudomonas aeruginosa 1592E. Described as above. Type of test: cell-based. The conditions noted are these: Muller Hinton agar, 10^7 CFU/ml, 37° C., 18 hours, read-out: Minimal Inhibitory Concentration (MIC).
Description: as §1
13. Pseudomonas aeruginosa 1592 E

The test system of test [4] is Escherichia coli 1507E. Described as above. The conditions noted are these: 18 h, read-out: Minimal Inhibitory Concentration (MIC).
Test [5] deals with gyrase of E. coli (Escherichia coli, UniProt P0AES4+P0AES6). In words: Inhibition of gyrase enzyme activity. Type of test: biochemical. The arrangement: unit not given here. The following applies: concentration to inhibit the enzyme activity of gyrase of E. coli. From the text: (§2) Test 2. Selectivity Index
Sequence of gyrase of E. coli (P0AES4 whole entry, one chain of several): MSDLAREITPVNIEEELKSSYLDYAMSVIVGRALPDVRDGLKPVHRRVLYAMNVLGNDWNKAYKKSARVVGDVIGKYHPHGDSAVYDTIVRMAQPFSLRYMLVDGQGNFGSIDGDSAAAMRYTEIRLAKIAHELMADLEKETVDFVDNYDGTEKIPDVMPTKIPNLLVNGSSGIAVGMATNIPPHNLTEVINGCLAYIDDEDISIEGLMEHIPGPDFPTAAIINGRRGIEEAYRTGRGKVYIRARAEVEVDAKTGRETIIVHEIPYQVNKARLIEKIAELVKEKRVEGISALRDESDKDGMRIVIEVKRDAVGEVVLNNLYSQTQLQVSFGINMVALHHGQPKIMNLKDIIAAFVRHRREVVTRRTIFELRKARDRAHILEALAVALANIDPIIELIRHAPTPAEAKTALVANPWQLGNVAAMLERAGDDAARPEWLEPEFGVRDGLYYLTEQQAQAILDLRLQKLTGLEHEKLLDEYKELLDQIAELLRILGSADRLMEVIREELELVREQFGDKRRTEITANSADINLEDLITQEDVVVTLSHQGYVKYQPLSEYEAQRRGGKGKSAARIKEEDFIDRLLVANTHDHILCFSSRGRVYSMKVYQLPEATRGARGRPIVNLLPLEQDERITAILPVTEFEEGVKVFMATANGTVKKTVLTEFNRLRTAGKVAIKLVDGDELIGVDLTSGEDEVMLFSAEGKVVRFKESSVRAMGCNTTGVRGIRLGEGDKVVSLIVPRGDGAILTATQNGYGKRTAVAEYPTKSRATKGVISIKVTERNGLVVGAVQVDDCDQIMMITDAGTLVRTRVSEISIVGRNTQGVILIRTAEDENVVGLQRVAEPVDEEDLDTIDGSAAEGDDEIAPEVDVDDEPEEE
Test [6] relates to Klebsiella oxytoca 1082E. Put plainly: Antibacterial activity in vitro (MIC, two-fold agar dilution). The conditions noted are these: 18 h, read-out: Minimal Inhibitory Concentration (MIC).
The test system of test [7] is Escherichia coli 078. Described as above. The conditions noted are these: Escherichia coli, 078, 18 h, read-out: Minimal Inhibitory Concentration (MIC).
In test [8] the test system is gyrase of E. coli and calf thymus topoisomerase II. The following applies: calculated by equation 1 from IC100, Topo II and IC100, Gyrase. As to the method: as §2
Selectivity indexes of the compounds of the present invention and control compounds were measured using gyrase purified from of E. coli and calf thymus topoisomerase II obtained from Topogen. Co.
The selectivity index (S.I.) was calculated by the equation 1. [formula]
wherein, IC100, Topo II is the concentration of a compound to inhibit the enzyme activity of topoisomerase II and IC100, Gyrase is the concentration of a compound to inhibit the enzyme activity of gyrase of E. coli.

The test system of test [9] is Streptococcus faecium MD 8b. Put plainly: Antibacterial activity in vitro (MIC, two-fold agar dilution). It counts as cell-based. The conditions noted are these: Enterococcus faecium, MD8B, read-out: Minimal Inhibitory Concentration (MIC).
Description: as §1
3. Streptococcus faecium MD 8b

Test [10] relates to Staphylococcus aureus SG 511. The description is as above. Type of test: cell-based. The conditions noted are these: SG511, Muller Hinton agar, 10^7 CFU/ml, 37° C., 18 hours, read-out: Minimal Inhibitory Concentration (MIC).
Description: as §1
4. Staphylococcus aureus SG 511

Test [11] concerns Enterobacter cloacae P99. Put plainly: microbe, parasite or virus in culture. The following applies: P99, 18 h, read-out: Minimal Inhibitory Concentration (MIC).
Description: as §1
19. Enterobacter cloacae P 99

Test [12] has as its system Streptococcus pyogenes A 308. Put plainly: Antibacterial activity in vitro (MIC, two-fold agar dilution). It counts as cell-based. The conditions noted are these: read-out: Minimal Inhibitory Concentration (MIC).
Description: as §1
1. Streptococcus pyogenes A 308

Test [13] has as its system calf thymus topoisomerase II. In words: Inhibition of topoisomerase II enzyme activity. Type of test: biochemical. Set-up: unit not given here. The following applies: concentration to inhibit the enzyme activity of topoisomerase II (calf thymus).
Description: as §2

Test [14] concerns Klebsiella aerogenes 1552E. In words: Antibacterial activity in vitro (MIC, two-fold agar dilution). The conditions noted are these: 18 h, read-out: Minimal Inhibitory Concentration (MIC).
In test [15] the test system is Escherichia coli TEM. Put plainly: microbe, parasite or virus in culture. The following applies: 18 h, read-out: Minimal Inhibitory Concentration (MIC).
For test [16], the system named is Staphylococcus aureus 285. Put plainly: Antibacterial activity in vitro (MIC, two-fold agar dilution). The conditions noted are these: Staphylococcus aureus, 285, 18 h, read-out: Minimal Inhibitory Concentration (MIC).
The test system of test [17] is Staphylococcus aureus 503. The description is as above. The conditions noted are these: Staphylococcus aureus, 503, 18 h, read-out: Minimal Inhibitory Concentration (MIC).
Test [18] has as its system Enterobacter cloacae 1321E. Put plainly: microbe, parasite or virus in culture. The conditions noted are these: 18 h, read-out: Minimal Inhibitory Concentration (MIC).
Description: as §1

In test [19] the test system is Streptococcus pyogenes A 77. In words: Antibacterial activity in vitro (MIC, two-fold agar dilution). Type of test: cell-based. The following applies: read-out: Minimal Inhibitory Concentration (MIC).
Description: as §1
2. Streptococcus pyogenes A 77

In test [20] the test system is Pseudomonas aeruginosa 1771. Described as above. It counts as cell-based. The following applies: Muller Hinton agar, 10^7 CFU/ml, 37° C., 18 hours, read-out: Minimal Inhibitory Concentration (MIC).
Description: as §1
14. Pseudomonas aeruginosa 1771

Test [21] relates to Salmonella typhimurium. Described as above. The conditions noted are these: Salmonella enterica, 18 h, read-out: Minimal Inhibitory Concentration (MIC).
For test [22], the system named is Pseudomonas aeruginosa 9027. The test is described as above. The following applies: Pseudomonas aeruginosa, 9027, 18 h, read-out: Minimal Inhibitory Concentration (MIC).
The mark [23] stands for this setting: Streptococcus pyogenes, A308, 18 h.
Where [24] appears, read: Streptococcus pyogenes, A77, 18 h.

Turning to `CC1CN(c2c(F)c(N)c3c(=O)c(C(=O)O)cn(C4CC4)c3c2F)CC(C)N1` (stereo not shown) [Sparfloxacin, 1-cyclopropyl-5-amino-6,8-difluoro-7-(3,5-dimethylpiperazin-1-yl)-4-oxoquinoline-3-carboxylic acid, reference compound], the MIC in [1] is 0.025 µg/mL (≈ 0.0637 µM); in test [2] (Escherichia coli, DC0, 18 h) it was 0.195 µg/mL (≈ 0.497 µM); in test [3], 0.781 µg/mL (≈ 1.99 µM); in [4], 0.025 µg/mL (≈ 0.0637 µM); in [6] it was less than 0.002 µg/mL; in [7], 0.004 µg/mL (≈ 0.0102 µM). For the same molecule, the MIC in [9] (18 h) amounted to 0.391 µg/mL (≈ 0.996 µM); in test [10], 0.098 µg/mL (≈ 0.25 µM); in test [11] it was 0.007 µg/mL (≈ 0.0178 µM); in [12] (setting [23]) it was 0.391 µg/mL (≈ 0.996 µM); in test [14] it was 0.025 µg/mL (≈ 0.0637 µM); in [15] it was 0.013 µg/mL (≈ 0.0331 µM). For the same molecule, the MIC turned out to be 0.049 µg/mL (≈ 0.125 µM) in [16]; 0.049 µg/mL (≈ 0.125 µM) in [17]; 0.004 µg/mL (≈ 0.0102 µM) in test [18]; 0.195 µg/mL (≈ 0.497 µM) in test [19] (setting [24]); 0.781 µg/mL (≈ 1.99 µM) in test [20]; 0.007 µg/mL (≈ 0.0178 µM) in test [21]. For the same molecule, in test [22], the MIC came to 0.781 µg/mL (≈ 1.99 µM). Moreover, the “IC100, Gyrase” value in [5] was determined as 1.0. The “S.I. (Selectivity Index)” value in [8] was 500. Moreover, the “IC100, Topo II” value in test [13] is recorded as 500.
Turning to `Cc1c(N2CC3=CCCN[C@H]3C2)c(F)cn2c(=O)c(C(=O)O)cc(C3CC3)c12` [Example 1, 8-{[(R)-2,8-diazabicyclo[4.3. 0]non-5-en]-8-yl}-1-cyclopropyl-7-fluoro-9-methyl-4-oxo-4H-quinolizine-3-carboxylic acid], the MIC was 0.013 µg/mL (≈ 0.0339 µM) in test [1]; 0.049 µg/mL (≈ 0.128 µM) in test [2] (DC0, Escherichia coli DC 0, Muller Hinton agar, 10^7 CFU/ml, 37° C., 18 hours); 0.098 µg/mL (≈ 0.256 µM) in test [3]; 0.007 µg/mL (≈ 0.0183 µM) in [4]; less than 0.002 µg/mL in test [6]; less than 0.002 µg/mL in test [7]. Also, the MIC turned out to be 0.025 µg/mL (≈ 0.0652 µM) in [9] (Streptococcus faecium MD 8b, Muller Hinton agar, 10^7 CFU/ml, 37° C., 18 hours); 0.007 µg/mL (≈ 0.0183 µM) in test [10]; 0.004 µg/mL (≈ 0.0104 µM) in test [11]; 0.049 µg/mL (≈ 0.128 µM) in [12] (A308, Streptococcus pyogenes A 308, Muller Hinton agar, 10^7 CFU/ml, 37° C., 18 hours); 0.013 µg/mL (≈ 0.0339 µM) in test [14]; 0.007 µg/mL (≈ 0.0183 µM) in test [15]. In addition, the MIC in [16] is 0.013 µg/mL (≈ 0.0339 µM); in [17], 0.007 µg/mL (≈ 0.0183 µM); in [18], less than 0.002 µg/mL; in test [19] (A77, Streptococcus pyogenes A 77, Muller Hinton agar, 10^7 CFU/ml, 37° C., 18 hours), 0.025 µg/mL (≈ 0.0652 µM); in test [20], 0.098 µg/mL (≈ 0.256 µM); in test [21], 0.004 µg/mL (≈ 0.0104 µM). Besides, the MIC in test [22] came to 0.195 µg/mL (≈ 0.509 µM). The “IC100, Gyrase” value in [5] was determined as 0.5. Also, the “S.I. (Selectivity Index)” value in test [8] is 2,000. For the same molecule, in test [13], the “IC100, Topo II” value is on record as 1,000.
On to `O=C(O)c1cn(C2CC2)c2cc(N3CCNCC3)c(F)cc2c1=O` [Ciprofloxacin, 1-cyclopropyl-6-fluoro-7-(piperazin-1-yl)-4-oxoquinoline-3-carboxylic acid, reference compound], for which the MIC in [1] is 0.049 µg/mL (≈ 0.148 µM); in [2] (Escherichia coli, DC0, 18 h), 0.195 µg/mL (≈ 0.589 µM); in [3], 0.195 µg/mL (≈ 0.589 µM); in test [4] it was 0.007 µg/mL (≈ 0.0211 µM); in test [6] it was less than 0.002 µg/mL; in test [7], 0.004 µg/mL (≈ 0.0121 µM). Also, the MIC in test [9] (18 h) amounted to 0.391 µg/mL (≈ 1.18 µM); in test [10], 0.195 µg/mL (≈ 0.589 µM); in [12] (setting [23]), 3.12 µg/mL (≈ 9.43 µM); in [14], 0.013 µg/mL (≈ 0.0392 µM); in [15] it was 0.007 µg/mL (≈ 0.0211 µM); in test [16], 0.781 µg/mL (≈ 2.36 µM). In addition, the MIC came out at 0.391 µg/mL (≈ 1.18 µM) in [17]; 0.781 µg/mL (≈ 2.36 µM) in test [19] (setting [24]); 0.195 µg/mL (≈ 0.589 µM) in [20]; 0.007 µg/mL (≈ 0.0211 µM) in test [21]; 0.195 µg/mL (≈ 0.589 µM) in [22]. Besides, the “IC100, Gyrase” value in [5] is 0.5. Also, the “IC100, Topo II” value in [13] was determined as 500.
For the molecule `Cc1c(N2CC(CN)C(OCc3cccnc3)C2)c(F)cn2c(=O)c(C(=O)O)cc(C3CC3)c12` (stereo not shown) [Example 16, 8-{[3-(3-pyridylmethyl)oxy-4-aminomethylpyrrolidine]-1-yl}-1-cyclopropyl-7-fluoro-9-methyl-4-oxo-4H-quinolizine-3-carboxylic acid], the MIC in test [1] is 0.013 µg/mL (≈ 0.0279 µM); in [2] (Escherichia coli, DC0, 18 h) it was 0.098 µg/mL (≈ 0.21 µM); in test [3] it was 0.195 µg/mL (≈ 0.418 µM); in [4], 0.013 µg/mL (≈ 0.0279 µM); in [6], less than 0.002 µg/mL; in test [7], less than 0.002 µg/mL. Besides, the MIC in test [9] (18 h) worked out at 0.049 µg/mL (≈ 0.105 µM); in test [10] it was 0.013 µg/mL (≈ 0.0279 µM); in test [11], 0.004 µg/mL (≈ 0.00857 µM); in [12] (setting [23]), 0.098 µg/mL (≈ 0.21 µM); in test [14] it was 0.013 µg/mL (≈ 0.0279 µM); in test [15], 0.007 µg/mL (≈ 0.015 µM). Besides, the MIC was 0.013 µg/mL (≈ 0.0279 µM) in [16]; 0.013 µg/mL (≈ 0.0279 µM) in test [17]; less than 0.002 µg/mL in test [18]; 0.049 µg/mL (≈ 0.105 µM) in test [19] (setting [24]); 0.195 µg/mL (≈ 0.418 µM) in [20]; 0.004 µg/mL (≈ 0.00857 µM) in [21]. In test [22], the MIC was 0.195 µg/mL (≈ 0.418 µM). In addition, in test [5], the “IC100, Gyrase” value amounted to 0.5. Moreover, the “S.I. (Selectivity Index)” value in test [8] was 2,000. The “IC100, Topo II” value in test [13] is listed as 1,000.
